What all share (experiment): normalised response (% of control), CellTox Green; higher = less cell death (100 = DMSO, 0 = benzethonium chloride kill control)
What all share (details): incubation time: 72 h

One assay relates to CAL-148. Summed up:
(§1)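 CellTox Green fluorescence (485/520 nm) and, after 10 min at room temperature, CellTiter-Glo luminescence were read from breast cancer cell lines incubated 72 h in 384-well plates. Cells were seeded as 20 µl suspension onto compound at 5 concentrations in 10-fold steps over a 10,000-fold range chosen per compound. Each plate was normalised to 0.1 % DMSO (100) and a positive kill control (0). Values are normalised signals, one per concentration.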

For the next assay, the system named is CAL-85-1. Summed up:
as §1

For another assay, the system named is DU-4475. Summed up: as §1
For a further assay, the system named is HCC1143. Summed up:
as §1

For a further assay, the system named is HCC1599. Summed up:
as §1

The next assay has as its system HCC1937. Summed up: as §1
The next assay has as its system MCF-10A. Summed up: as §1
Another assay deals with MDA-MB-231. Summed up: as §1
The test system of the next assay is MDA-MB-436. Summed up:
as §1

For another assay, the system named is MDA-MB-468. Summed up: as §1
A further assay deals with MFM-223. Summed up:
as §1

In the supplement of paper PMC4862054 one finds normalised response data, which are given here for seven molecules.

`O=P1(NCCCl)OCCCN1CCCl` (configuration not stated) [Ifosfamide] (1000 nM): the normalised response in the assay on CAL-148 came to 100%; in the assay on CAL-85-1, 100%; with DU-4475, 95.8%; in the assay with HCC1143 it was 107%; with HCC1599, 98.7%; in the assay on HCC1937 it was 70.1%. The normalised response worked out at 90% in the assay on MCF-10A; 96.2% in the assay on MDA-MB-231; 58.7% in the assay on MDA-MB-436; 139% in the assay on MDA-MB-468; 94.9% in the assay with MFM-223.
`Cc1ccc(C(=O)Nc2ccc(CN3CCN(C)CC3)c(C(F)(F)F)c2)cc1C#Cc1cnc2cccnn12` [Ponatinib] (100 nM): the normalised response in the assay with CAL-148 was 104%; in the assay on CAL-85-1, 105%; with DU-4475 it was 99.3%; with HCC1143, 107%; in the assay with HCC1599, 97.4%; in the assay with HCC1937, 92.2%. Moreover, the normalised response in the assay on MCF-10A was 72.1%; in the assay on MDA-MB-231, 97.6%; in the assay on MDA-MB-436 it was 102%; in the assay on MDA-MB-468, 96.7%; with MFM-223 it was 98.7%.
As for `N[C@@H](CSC(c1ccccc1)(c1ccccc1)c1ccccc1)C(=O)O` [S-trityl-L-cysteine] (4000 nM), the normalised response in the assay with CAL-148 came out at 98.3%; with CAL-85-1 it was 100%; in the assay with DU-4475, 101%; with HCC1143 it was 87%; in the assay on HCC1599, 95.5%; in the assay with HCC1937, 85.1%. Besides, the normalised response came to 116% in the assay on MCF-10A, 105% in the assay with MDA-MB-436 and 136% in the assay with MDA-MB-468.
Consider `CCC1(c2ccc(N)cc2)CCC(=O)NC1=O` (configuration not stated) [Aminoglutethimide] (1000 nM), for which the normalised response with CAL-148 came out at 104%; in the assay with CAL-85-1, 105%; in the assay with DU-4475 it was 99.2%; in the assay with HCC1143, 106%; in the assay on HCC1599 it was 96.2%; in the assay with HCC1937, 97.3%. The normalised response in the assay on MCF-10A is 109%; in the assay with MDA-MB-231 it was 76.7%; with MDA-MB-436, 98.2%; in the assay on MDA-MB-468, 177%; in the assay on MFM-223, 97.6%.
`Oc1nc(-c2ccc(C(F)(F)F)cc2)nc2c1CSCC2` [XAV-939] (1000 nM): the normalised response in the assay with CAL-148 was 101%; in the assay with CAL-85-1, 103%; in the assay with DU-4475, 101%; in the assay on HCC1143 it was 96.1%; with HCC1599, 100%; in the assay with HCC1937 it was 114%. Besides, the normalised response in the assay on MCF-10A came to 67.7%; in the assay on MDA-MB-231, 102%; with MDA-MB-436 it was 102%; in the assay with MDA-MB-468 it was 118%; with MFM-223, 99.9%.
As to `Cc1ccc(C(=O)N(CCCN)[C@@H](c2oc3cc(Cl)ccc3c(=O)c2Cc2ccccc2)C(C)C)cc1` (100 nM), the normalised response with CAL-148 worked out at 106%; in the assay with CAL-85-1, 99.9%; with DU-4475 it was 95.1%; with HCC1599, 99.7%; in the assay on HCC1937, 84.6%; in the assay on MCF-10A, 80%. In addition, the normalised response with MDA-MB-231 came out at 87.5%; in the assay on MDA-MB-436, 105%; in the assay on MDA-MB-468 it was 59.9%; with MFM-223, 90.5%.
For the molecule `COc1cc2nccc(Oc3ccc(NC(=O)C4(C(=O)Nc5ccc(F)cc5)CC4)cc3)c2cc1OC` [Cabozantinib] (100 nM), the normalised response with CAL-148 came out at 102%; in the assay with CAL-85-1 it was 106%; in the assay with DU-4475, 97.5%; in the assay on HCC1599, 92.3%; in the assay on HCC1937 it was 120%; in the assay on MCF-10A it was 88.3%. Besides, the figures for the normalised response in the assay on MDA-MB-231, in the assay with MDA-MB-468 and with MFM-223 were 103%, 136% and 96.3%, respectively.
